According to US9770452B2, “Quinoxaline derivatives as GPR6 modulators” (Takeda Pharmaceutical Company Limited, priority 2012, dated 2017):
Where a name gives a salt, the structure may show the parent alone.

Biological target: T1, GPR6 receptor (Homo sapiens, UniProt P46095)
T1 construct: expressed in transfected cells
Assay: Inhibition of cAMP Activity of GPR6 In Vitro Assay (CHO-K1 cells, HTRF cAMP)
Type: cell-based
Conditions: compounds of Compound Table 1; inhibition of constitutive cAMP activity of GPR6 expressed in CHO-K1 cells; approximate IC50; read-out: IC50
Procedure, shortened: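 CHO-K1 cells with doxycycline-induced (1 μg/ml, 20 h) GPR6 treated with compounds 45 min at 37 °C in Ringer's buffer (pH 7.4) with 0.5% fatty acid free BSA. Constitutive cAMP measured by Lance HTRF Ultra cAMP; IC50 from four-parameter logistic fit.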

T1 sequence (P46095 whole entry): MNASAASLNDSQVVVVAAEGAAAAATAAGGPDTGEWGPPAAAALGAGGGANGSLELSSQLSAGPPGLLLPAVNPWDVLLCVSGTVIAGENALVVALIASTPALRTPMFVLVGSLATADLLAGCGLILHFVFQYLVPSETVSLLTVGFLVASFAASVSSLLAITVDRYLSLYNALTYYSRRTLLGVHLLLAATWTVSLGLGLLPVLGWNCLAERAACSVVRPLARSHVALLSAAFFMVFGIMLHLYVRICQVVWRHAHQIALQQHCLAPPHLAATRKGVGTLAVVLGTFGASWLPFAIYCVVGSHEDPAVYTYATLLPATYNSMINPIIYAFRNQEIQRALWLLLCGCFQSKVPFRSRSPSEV

In the case of “(R)-2-((3-(4-(2,5-dichlorobenzyl)piperazin-1-yl)quinoxalin-2-yl)amino)propan-1-ol, 2,2,2-trifluoroacetic acid salt [Cpd 172]”, the IC50 is reported as 2340 nM.

For “2-(4-(4-chloro-2-fluorophenoxy)piperidin-1-yl)-3-(isopropylamino)quinoxaline-6-carbonitrile, hydrogen chloride salt [Cpd 626]”, the IC50 was 90 nM.

In the case of “mixture of N-cyclopropyl-3-(4-(2,5-dichlorobenzyl)piperazin-1-yl)-7-methoxyquinoxalin-2-amine, 2,2,2-trifluoroacetic acid salt and N-cyclopropyl-3-(4-(2,5-dichlorobenzyl)piperazin-1-yl)-7-methoxyquinoxalin-2-amine, 2,2,2-trifluoroacetic acid salt [Cpd 47]”, the IC50 is reported as 3360 nM.

Work on “(1-(2-(cyclopropylamino)pyrido[3,4-b]pyrazin-3-yl)piperidin-4-yl)(3-fluorophenyl)methanone, 2,2,2-trifluoroacetic acid salt [Cpd 568]” yielded an IC50 of 2180 nM.

Compound “(4-chlorophenyl)(1-(2-(cyclopropylamino)pyrido[3,4-b]pyrazin-3-yl)piperidin-4-yl)methanone, 2,2,2-trifluoroacetic acid salt [Cpd 430]” has an IC50 of 1100 nM.

“2-(4-(2,4-difluorophenoxy)piperidin-1-yl)-N-isopropylpyrido[3,4-b]pyrazin-3-amine [Cpd 656]” was tested, and the IC50 was 14 nM.

Compound “(S)—N-cyclopropyl-3-(4-((2,4-difluorophenyl)fluoromethyl)piperidin-1-yl)pyrazino[2,3-d]pyridazin-2-amine, 2,2,2-trifluoroacetic acid salt [Cpd 594]” has an IC50 of 31 nM.

In the case of `COc1ccc(C(=O)N2CCN(c3nc4ccccc4nc3NC3CC3)CC2)cc1Cl` [Cpd 9, (3-chloro-4-methoxyphenyl)(4-(3-(cyclopropylamino)quinoxalin-2-yl)piperazin-1-yl)methanone, 2,2,2-trifluoroacetic acid salt], the IC50 is reported as 10100 nM.

“1-(4-((1-(2-(cyclopropylamino)pyrido[3,4-b]pyrazin-3-yl)piperidin-4-yl)oxy)phenyl)ethanone, 2,2,2-trifluoroacetic acid salt [Cpd 582]” gave an IC50 of 7 nM.

Work on “3-(4-((4-bromophenyl)sulfonyl)piperazin-1-yl)-2-(cyclopropylamino)quinoxaline-6-carbonitrile [Cpd 251]” yielded an IC50 of 4340 nM.

Work on “N-cyclopropyl-3-(4-(4-methoxyphenoxy)piperidin-1-yl)pyrido[3,4-b]pyrazin-2-amine [Cpd 552]” yielded an IC50 of 24 nM.

In the case of “3-(4-((2-chloro-4-(trifluoromethyl)phenyl)sulfonyl)piperazin-1-yl)-2-(cyclopropylamino)quinoxaline-6-carbonitrile, 2,2,2-trifluoroacetic acid salt [Cpd 330]”, the IC50 is reported as 29 nM.

“8-chloro-3-(4-(5-chloro-2-fluorobenzyl)piperazin-1-yl)-N-cyclopropylpyrido[3,4-b]pyrazin-2-amine, 2,2,2-trifluoroacetic acid salt [Cpd 351]” showed an IC50 of 62 nM.

“(2-bromopyridin-3-yl)(1-(2-(cyclopropylamino)pyrido[3,4-b]pyrazin-3-yl)piperidin-4-yl)methanone, 2,2,2-trifluoroacetic acid salt [Cpd 586]” was tested, and the IC50 was 2290 nM.

For “3-(4-((4-chloro-2,5-dimethylphenyl)sulfonyl)piperazin-1-yl)-2-(cyclopropylamino)quinoxaline-6-carbonitrile, 2,2,2-trifluoroacetic acid salt [Cpd 281]”, the IC50 was 960 nM.

“3-(1-(2-(cyclopropylamino)pyrido[3,4-b]pyrazin-3-yl)piperidine-4-carbonyl)-4-fluorobenzonitrile, 2,2,2-trifluoroacetic acid salt [Cpd 587]” showed an IC50 of 78 nM.

Compound “3-(4-(2-fluoro-4-methoxyphenoxy)piperidin-1-yl)-N-isopropylpyrido[3,4-b]pyrazin-2-amine, 2,2,2-trifluoroacetic acid salt [Cpd 616]” has an IC50 of 939 nM.

Work on `Clc1cccc(CN2CCN(c3nc4cccnc4nc3Nc3ccccc3)CC2)c1` [Cpd 22, 2-(4-(3-chlorobenzyl)piperazin-1-yl)-N-phenylpyrido[2,3-b]pyrazin-3-amine, 2,2,2-trifluoroacetic acid salt] yielded an IC50 of 7670 nM.

In the case of “N-cyclopropyl-3-(4-(2,4-difluorophenoxy)piperidin-1-yl)-5-methylpyrido[3,4-b]pyrazin-2-amine, 2,2,2-trifluoroacetic acid salt [Cpd 494]”, the IC50 is reported as 2 nM.

“3-(4-(2,4-difluorophenoxy)piperidin-1-yl)-N-isopropylpyrazino[2,3-d]pyridazin-2-amine, 2,2,2-trifluoroacetic acid salt [Cpd 632]” showed an IC50 of 28 nM.

Work on “2-(4-(2,4-difluorobenzyl)piperidin-1-yl)-N-(2,2-difluoroethyl)pyrido[3,4-b]pyrazin-3-amine [Cpd 428]” yielded an IC50 of 20 nM.

“(4-chloro-2-(trifluoromethyl)phenyl)(4-(2-(cyclopropylamino)pyrido[3,4-b]pyrazin-3-yl)piperazin-1-yl)methanone, 2,2,2-trifluoroacetic acid salt [Cpd 392]” was tested, and the IC50 was 260 nM.

With “2-(cyclopropylamino)-3-(4-((2,4-difluorophenyl)fluoromethyl)piperidin-1-yl)quinoxaline-6-carbonitrile, 2,2,2-trifluoroacetic acid salt [Cpd 480]” the IC50 was 72 nM.

`Cc1cccc(CN2CCN(c3nc4ncccc4nc3NC3CC3)CC2)c1` [Cpd 3, N-cyclopropyl-3-(4-(3-methylbenzyl)piperazin-1-yl)pyrido[2,3-b]pyrazin-2-amine] gave an IC50 of 24600 nM.

With “(4-bromo-3-fluorophenyl)(4-(3-(cyclopropylamino)-7-fluoroquinoxalin-2-yl)piperazin-1-yl)methanone [Cpd 247]” the IC50 was 1490 nM.

Compound “N-cyclopropyl-3-(4-((4-(trifluoromethyl)phenyl)sulfonyl)piperazin-1-yl)pyrido[3,4-b]pyrazin-2-amine, 2,2,2-trifluoroacetic acid salt [Cpd 302]” has an IC50 of 340 nM.

“N-cyclopropyl-3-(4-(4-fluoro-2-methylbenzyl)piperazin-1-yl)quinoxalin-2-amine, 2,2,2-trifluoroacetic acid salt [Cpd 157]” gave an IC50 of 105000 nM.

In the case of `O=C(c1ccsc1Cl)C1CCN(c2nc3cnccc3nc2NC2CC2)CC1` [Cpd 572, (2-chlorothiophen-3-yl)(1-(2-(cyclopropylamino)pyrido[3,4-b]pyrazin-3-yl)piperidin-4-yl)methanone, hydrogen chloride salt], the IC50 is reported as 21 nM.

With “2-(cyclopropylamino)-3-(4-(2,5-difluorobenzyl)piperazin-1-yl)quinoxaline-6-carbonitrile, 2,2,2-trifluoroacetic acid salt [Cpd 257]” the IC50 was 310 nM.

With “(R)-azetidin-1-yl(2-(cyclopropylamino)-3-(4-((2,4-difluorophenyl)fluoromethyl)piperidin-1-yl)pyrido[3,4-b]pyrazin-7-yl)methanone [Cpd 589]” the IC50 was 69 nM.

“N-cyclopropyl-3-(4-(2,4-difluorophenoxy)piperidin-1-yl)pyrazino[2,3-d]pyridazin-2-amine, 2,2,2-trifluoroacetic acid salt [Cpd 619]” showed an IC50 of 14 nM.

With “2-((2,2-difluoroethyl)amino)-3-(4-(2,4-difluorophenoxy)piperidin-1-yl)pyrido[3,4-b]pyrazine-7-carbonitrile, 2,2,2-trifluoroacetic acid salt [Cpd 646]” the IC50 was 538 nM.

In the case of “N-cyclopropyl-3-(4-(2,4-difluorobenzyl)piperidin-1-yl)-6-fluoroquinoxalin-2-amine, 2,2,2-trifluoroacetic acid salt [Cpd 479]”, the IC50 is reported as 140 nM.

“N-cyclopropyl-3-(4-((5-methylisoxazol-3-yl)methyl)piperazin-1-yl)quinoxalin-2-amine, 2,2,2-trifluoroacetic acid salt [Cpd 158]” gave an IC50 of 440 nM.

Compound “(2-chlorophenyl)(1-(2-(cyclopropylamino)pyrido[3,4-b]pyrazin-3-yl)piperidin-4-yl)methanone, 2,2,2-trifluoroacetic acid salt [Cpd 557]” has an IC50 of 1920 nM.

“2-((2,2-difluoroethyl)amino)-3-(4-(2,4-difluorophenoxy)piperidin-1-yl)quinoxaline-6-carbonitrile [Cpd 513]” gave an IC50 of 71 nM.

Work on `Clc1ccc(Cl)c(CN2CCN(c3nc4ncccc4nc3NC3CC3)CC2)c1` [Cpd 63, N-cyclopropyl-3-(4-(2,5-dichlorobenzyl)piperazin-1-yl)pyrido[2,3-b]pyrazin-2-amine] yielded an IC50 of 1130 nM.

“N-cyclopropyl-3-(4-(4-(methylthio)phenoxy)piperidin-1-yl)pyrido[3,4-b]pyrazin-2-amine, 2,2,2-trifluoroacetic acid salt [Cpd 600]” gave an IC50 of 20 nM.

`COCCCNc1nc2ccccc2nc1N1CCN(Cc2cc(Cl)ccc2Cl)CC1` [Cpd 66, 3-(4-(2,5-dichlorobenzyl)piperazin-1-yl)-N-(3-methoxypropyl)quinoxalin-2-amine] gave an IC50 of 1940 nM.

Work on “(S)-2-(cyclopropylamino)-3-(4-((2,4-difluorophenyl)fluoromethyl)piperidin-1-yl)-N,N-dimethylpyrido[3,4-b]pyrazine-7-carboxamide, 2,2,2-trifluoroacetic acid salt [Cpd 577]” yielded an IC50 of 4900 nM.

“(S)-2-(cyclopropylamino)-3-(4-((2,4-difluorophenyl)fluoromethyl)piperidin-1-yl)pyrido[3,4-b]pyrazine-7-carbonitrile [Cpd 547]” gave an IC50 of 16 nM.

“N-cyclopropyl-3-(4-(2,4-difluorobenzyl)piperidin-1-yl)pyrido[3,4-b]pyrazin-2-amine, 2,2,2-trifluoroacetic acid salt [Cpd 414]” gave an IC50 of 390 nM.

“3-(4-(3-bromo-4-fluorobenzoyl)piperazin-1-yl)-2-(cyclopropylamino)quinoxaline-6-carbonitrile, 2,2,2-trifluoroacetic acid salt [Cpd 256]” showed an IC50 of 380 nM.
